Results as given in article PMC9241942 (Microbiology Spectrum, 2022).

What was measured:
[1] = Comparison with orthophosphoric acid-based extraction method (Berthoin et al. 2009), total fecal vancomycin by HPLC; format: in vivo, human
Method: Briefly, six samples were chosen with two aliquots were prepared for each sample. The aliquots were mixed with 971 μL of water and 29 μL of 85% orthophosphoric acid according to the composition of orthophosphoric acid-based extraction solvent developed by Berthoin et al. (2009) ([17]).

[2] = Fecal vancomycin levels in lyophilized clinical stool samples, HPLC, with water correction; format: in vivo, human
Method: (§1) An aliquot of stool and 1 mL of extraction solvent (acetonitrile and water, 10:90 [vol/vol], 0.1% TFA) was added into 2-mL centrifuge tube and shaken (Vortex-Genie 2 Shaker, Scientific Industries, USA) for 10 s, ultrasonicated for 5 min (Multool ultrasonic cleaner, Model: TH-030A), and centrifuged at 10,000 g for 3 min (Centrifuge 5804 R, Eppendorf). The supernatant was collected and diluted by 10-fold using the extraction solvent and was stored at −80°C prior to HPLC analysis.
(§2) The mobile phase consisted of a mixture of acetonitrile and water, (10:90 [v:v], 0.1% TFA). The flow rate and the temperature of column oven were set at 0.3 mL/min and 40°C, respectively.
(§3) Differences in concentrations were compared by RSD.

[3] = cited from earlier work
Source text: The goal of the human microbiome project (HMP) is to characterize the human microbiome and analyze its role in health and disease ([1]). The HMP has advanced science on the systems biology of the gut microbiome, the most diverse and abundant microbiome in the human body. By far, the largest contributor to immediate changes in the human gut microbiome are broad spectrum antimicrobials that are excreted via the gastrointestinal tract. To be able to properly study the effect of antimicrobials on the gut microbiome, pharmacokinetic studies using validated assays in the correct biologic matrix will ... || During the phase I clinical trial mentioned above, the pharmacokinetics of ibezapolstat was evaluated using a commercial laboratory. They required the entire stool in order to homogenize the sample for accurate pharmacokinetics results as the heterogeneity of antibiotics in stool samples has not been studied. This differs from blood, urine, or other matrices in which an almost constant supply is present. However, as bowl movements only occur once per day or less, use of an entire sample for pharmacokinetic analyses excludes other microbiome evaluations from that particular day or time-period. ...

[4] = Fecal vancomycin levels in original clinical stool samples of healthy volunteers, HPLC-PDA at 205 nm; format: in vivo, human; conditions: for Vancomycin concn, Aliquot 3 / Vancomycin concn, Aliquot 2: original stool
Method: as §1, §2, §3

[5] = cited from earlier work; remark: listed apart in the source
Source text: The goal of the human microbiome project (HMP) is to characterize the human microbiome and analyze its role in health and disease ([1]). The HMP has advanced science on the systems biology of the gut microbiome, the most diverse and abundant microbiome in the human body. By far, the largest contributor to immediate changes in the human gut microbiome are broad spectrum antimicrobials that are excreted via the gastrointestinal tract. […] Moreover, the quantitative range of our new method ( ...

[6] = Vancomycin stability in clinical stool samples over time (inter-day); format: in vitro ADME, human; conditions: for Day 0, vancomycin concn: first assay; for Day 0, vancomycin concn / Day 48, vancomycin concn: Mean ± SD, identical aliquots n = 3, SD; for Day 48, vancomycin concn: second assay after storage
Method: as §1, §2, §3

CN[C@H](CC(C)C)C(=O)N[C@H]1C(=O)N[C@@H](CC(N)=O)C(=O)N[C@H]2C(=O)N[C@H]3C(=O)N[C@H](C(=O)N[C@H](C(=O)O)c4cc(O)cc(O)c4-c4cc3ccc4O)[C@H](O)c3ccc(c(Cl)c3)Oc3cc2cc(c3O[C@@H]2O[C@H](CO)[C@@H](O)[C@H](O)[C@H]2O[C@H]2C[C@](C)(N)[C@H](O)[C@H](C)O2)Oc2ccc(cc2Cl)[C@H]1O [vancomycin]
Fecal vancomycin concentration (Mean ± SD), Previous method ([1]; clinical sample 5, two aliquots): 267 ± 45 µg/mL
Fecal vancomycin concentration (Mean ± SD), Previous method ([1]; clinical sample 6, two aliquots): 2,045±100 µg/ml
Fecal vancomycin concentration (Mean ± SD), Previous method ([1]; clinical sample 8, two aliquots): 2,110±23 µg/ml
Fecal vancomycin concentration (Mean ± SD), Previous method ([1]; clinical sample 9, two aliquots): 2,106±33 µg/ml
Fecal vancomycin concentration (Mean ± SD), Previous method ([1]; clinical sample 12, two aliquots): 1,771±11 µg/ml
Fecal vancomycin concentration (Mean ± SD), Previous method ([1]; clinical sample 14, two aliquots): 1,253±47 µg/ml
Lyophilized samples, Vanco conc ([2]; sample 6, subject E, day 8, oral 125 mg 4 times daily for 10 days, aliquot 1, wt 31 mg): 9,206 μg/g
Lyophilized samples, Vanco conc ([2]; sample 6, subject E, day 8, oral 125 mg 4 times daily for 10 days, aliquot 2, wt 58.2 mg): 10,109 μg/g
Lyophilized samples, Vanco conc, Mean ([2]; sample 6, subject E, day 8, oral 125 mg 4 times daily for 10 days, mean of 2 aliquots): 9,658 μg/g
Lyophilized samples, Vanco conc ([2]; sample 7, subject F, day 8, oral 125 mg 4 times daily for 10 days, aliquot 1, wt 44.6 mg): 8,614 μg/g
Lyophilized samples, Vanco conc ([2]; sample 7, subject F, day 8, oral 125 mg 4 times daily for 10 days, aliquot 2, wt 28.2 mg): 9,367 μg/g
Lyophilized samples, Vanco conc, Mean ([2]; sample 7, subject F, day 8, oral 125 mg 4 times daily for 10 days, mean of 2 aliquots): 8,991 μg/g
Lyophilized samples, Vanco conc ([2]; sample 8, subject E, day 9, oral 125 mg 4 times daily for 10 days, aliquot 1, wt 28.7 mg): 10,116 μg/g
Lyophilized samples, Vanco conc ([2]; sample 8, subject E, day 9, oral 125 mg 4 times daily for 10 days, aliquot 2, wt 39.4 mg): 9,445 μg/g
Lyophilized samples, Vanco conc, Mean ([2]; sample 8, subject E, day 9, oral 125 mg 4 times daily for 10 days, mean of 2 aliquots): 9,781 μg/g
Lyophilized samples, Vanco conc ([2]; sample 9, subject F, day 9, oral 125 mg 4 times daily for 10 days, aliquot 1, wt 26.7 mg): 9,745 μg/g
Lyophilized samples, Vanco conc ([2]; sample 9, subject F, day 9, oral 125 mg 4 times daily for 10 days, aliquot 2, wt 43.3 mg): 8,981 μg/g
Lyophilized samples, Vanco conc ([2]; sample 9, subject F, day 9, oral 125 mg 4 times daily for 10 days, aliquot 3, wt 60.8 mg): 8,935 μg/g
Lyophilized samples, Vanco conc, Mean ([2]; sample 9, subject F, day 9, oral 125 mg 4 times daily for 10 days, mean of 3 aliquots): 9,220 μg/g
Lyophilized samples, Vanco conc ([2]; sample 10, subject D, day 10, oral 125 mg 4 times daily for 10 days, aliquot 1, wt 41.2 mg): 7,501 μg/g
Lyophilized samples, Vanco conc ([2]; sample 10, subject D, day 10, oral 125 mg 4 times daily for 10 days, aliquot 2, wt 75.3 mg): 6,911 μg/g
Lyophilized samples, Vanco conc, Mean ([2]; sample 10, subject D, day 10, oral 125 mg 4 times daily for 10 days, mean of 2 aliquots): 7,206 μg/g
Lyophilized samples, Vanco conc ([2]; sample 11, subject D, day 11, oral 125 mg 4 times daily for 10 days, aliquot 1, wt 51.9 mg): 7,688 μg/g
Lyophilized samples, Vanco conc ([2]; sample 11, subject D, day 11, oral 125 mg 4 times daily for 10 days, aliquot 2, wt 36.8 mg): 8,166 μg/g
Lyophilized samples, Vanco conc ([2]; sample 11, subject D, day 11, oral 125 mg 4 times daily for 10 days, aliquot 3, wt 30 mg): 6,457 μg/g
Lyophilized samples, Vanco conc, Mean ([2]; sample 11, subject D, day 11, oral 125 mg 4 times daily for 10 days, mean of 3 aliquots): 7,437 μg/g
Lyophilized samples, Vanco conc ([2]; sample 12, subject F, day 11, oral 125 mg 4 times daily for 10 days, aliquot 1, wt 12.7 mg): 9,026 μg/g
Lyophilized samples, Vanco conc ([2]; sample 12, subject F, day 11, oral 125 mg 4 times daily for 10 days, aliquot 2, wt 32.6 mg): 8,563 μg/g
Lyophilized samples, Vanco conc ([2]; sample 12, subject F, day 11, oral 125 mg 4 times daily for 10 days, aliquot 3, wt 49.2 mg): 6,962 μg/g
Lyophilized samples, Vanco conc, Mean ([2]; sample 12, subject F, day 11, oral 125 mg 4 times daily for 10 days, mean of 3 aliquots): 8,184 μg/g
Lyophilized samples, Vanco conc ([2]; sample 14, subject F, day 12, oral 125 mg 4 times daily for 10 days, aliquot 1, wt 19 mg): 6,748 μg/g
Lyophilized samples, Vanco conc ([2]; sample 14, subject F, day 12, oral 125 mg 4 times daily for 10 days, aliquot 2, wt 37.1 mg): 5,810 μg/g
Lyophilized samples, Vanco conc ([2]; sample 14, subject F, day 12, oral 125 mg 4 times daily for 10 days, aliquot 3, wt 56.2 mg): 5,803 μg/g
Lyophilized samples, Vanco conc, Mean ([2]; sample 14, subject F, day 12, oral 125 mg 4 times daily for 10 days, mean of 3 aliquots): 6,120 μg/g
Lyophilized samples, Vanco conc ([2]; sample 15, subject D, day 12, oral 125 mg 4 times daily for 10 days, aliquot 1, wt 41.6 mg): 5,058 μg/g
Lyophilized samples, Vanco conc ([2]; sample 15, subject D, day 12, oral 125 mg 4 times daily for 10 days, aliquot 2, wt 38.5 mg): 4,941 μg/g
Lyophilized samples, Vanco conc ([2]; sample 15, subject D, day 12, oral 125 mg 4 times daily for 10 days, aliquot 3, wt 44.1 mg): 4,921 μg/g
Lyophilized samples, Vanco conc, Mean ([2]; sample 15, subject D, day 12, oral 125 mg 4 times daily for 10 days, mean of 3 aliquots): 4,973 μg/g
water solubility (in words) [3]: water-soluble
hydrophilicity (in words) ([3]; general statement of the discussion, no reference given): hydrophilic drug
persistence of vancomycin in stool after end of dosing (in words) ([4]; healthy volunteers, oral 125 mg 4 times daily for 10 days): persists for several days following the end of the 10-day dosing regimen
vancomycin concentration in the diluted fecal extract solution ([4]; original clinical sample 9, fecal extract diluted by 10-fold, 205 nm): 20.1 µg/mL
Vancomycin concn, Aliquot 3 ([4]; sample 5, subject H, day 5, oral 125 mg 4 times daily for 10 days, wet wt 33.0 mg): 259 (33.0) μg/g
Vancomycin concn, Aliquot 2 ([4]; sample 5, subject H, day 5, oral 125 mg 4 times daily for 10 days, wet wt 52.9 mg): 259 (52.9) μg/g
Vancomycin concn, Aliquot 2 ([4]; sample 6, subject E, day 8, oral 125 mg 4 times daily for 10 days, wet wt 40.7 mg): 2033 (40.7) μg/g
Vancomycin concn, Aliquot 3 ([4]; sample 6, subject E, day 8, oral 125 mg 4 times daily for 10 days, wet wt 106.5 mg): 1660 (106.5) μg/g
Vancomycin concn, Aliquot 3 ([4]; sample 7, subject F, day 8, oral 125 mg 4 times daily for 10 days, wet wt 48.1 mg): 2057 (48.1) μg/g
Vancomycin concn, Aliquot 2 ([4]; sample 7, subject F, day 8, oral 125 mg 4 times daily for 10 days, wet wt 55.7 mg): 1877 (55.7) μg/g
Vancomycin concn, Aliquot 3 ([4]; sample 8, subject E, day 9, oral 125 mg 4 times daily for 10 days, wet wt 61.5 mg): 1920 (61.5) μg/g
Vancomycin concn, Aliquot 2 ([4]; sample 8, subject E, day 9, oral 125 mg 4 times daily for 10 days, wet wt 91.7 mg): 1868 (91.7) μg/g
Vancomycin concn, Aliquot 2 ([4]; sample 9, subject F, day 9, oral 125 mg 4 times daily for 10 days, wet wt 68.4 mg): 1964 (68.4) μg/g
Vancomycin concn, Aliquot 3 ([4]; sample 9, subject F, day 9, oral 125 mg 4 times daily for 10 days, wet wt 80.2 mg): 1973 (80.2) μg/g
Vancomycin concn, Aliquot 2 ([4]; sample 10, subject D, day 10, oral 125 mg 4 times daily for 10 days, wet wt 34.7 mg): 1947 (34.7) μg/g
Vancomycin concn, Aliquot 3 ([4]; sample 10, subject D, day 10, oral 125 mg 4 times daily for 10 days, wet wt 57.0 mg): 1775 (57.0) μg/g
Vancomycin concn, Aliquot 2 ([4]; sample 11, subject D, day 11, oral 125 mg 4 times daily for 10 days, wet wt 62.7 mg): 1801 (62.7) μg/g
Vancomycin concn, Aliquot 3 ([4]; sample 11, subject D, day 11, oral 125 mg 4 times daily for 10 days, wet wt 64.0 mg): 1891 (64.0) μg/g
Vancomycin concn, Aliquot 2 ([4]; sample 12, subject F, day 11, oral 125 mg 4 times daily for 10 days, wet wt 47 mg): 1920 (47) μg/g
Vancomycin concn, Aliquot 3 ([4]; sample 12, subject F, day 11, oral 125 mg 4 times daily for 10 days, wet wt 54.2 mg): 1488 (54.2) μg/g
Vancomycin concn, Aliquot 2 ([4]; sample 14, subject F, day 12, oral 125 mg 4 times daily for 10 days, wet wt 60.8 mg): 1162 (60.8) μg/g
Vancomycin concn, Aliquot 3 ([4]; sample 14, subject F, day 12, oral 125 mg 4 times daily for 10 days, wet wt 74.6 mg): 1070 (74.6) μg/g
Vancomycin concn, Aliquot 3 ([4]; sample 15, subject D, day 12, oral 125 mg 4 times daily for 10 days, wet wt 59.4 mg): 1200 (59.4) μg/g
Vancomycin concn, Aliquot 2 ([4]; sample 15, subject D, day 12, oral 125 mg 4 times daily for 10 days, wet wt 90.1 mg): 1111 (90.1) μg/g
typical fecal vancomycin level after standard oral vancomycin administration [5]: > 100 µg/mL
absorption from the human gastrointestinal (GI) tract (in words) ([5]; oral, mainly excreted into the stool): absorbed minimally
Day 0, vancomycin concn ([6]; clinical stool sample 5): 269 ± 3 µg/g
Day 48, vancomycin concn ([6]; clinical stool sample 5): 259 ± 14 µg/g
Day 0, vancomycin concn ([6]; clinical stool sample 9): 1,897 ± 7 μg/g
Day 48, vancomycin concn ([6]; clinical stool sample 9): 1,905 ± 12 μg/g
Day 0, vancomycin concn ([6]; clinical stool sample 14): 1,211 ± 8 μg/g
Day 48, vancomycin concn ([6]; clinical stool sample 14): 1,220 ± 11 μg/g
stability of vancomycin concentrations in stool over time ([6]; clinical stool samples, up to 49 days studied): stable over time up to 49 days
